Reference: EPA's ToxRefDB 2

Columns and labels:
rat [1] = conditions: Combined chronic toxicity/carcinogenicity, other, Oral, Feed, dose end: 27 month, group: systemic
rat [2] = conditions: Sub-acute repeat dose toxicity, other, Oral, Feed, dose end: 28 day, group: systemic
rat [3] = conditions: Combined chronic toxicity/carcinogenicity, other, Oral, Feed, dose end: 27 month, group: systemic; remark: listed apart in the source
mouse = conditions: Combined chronic toxicity/carcinogenicity; other; Oral; Feed; dose end: 24 month; group: systemic; systemic / organ weight / thyroid gland / absolute + systemic / organ weight / thyroid gland / relative to body weight + systemic / organ …
rabbit = conditions: Sub-acute dermal toxicity, new zealand white, Topical, dose end: 28 day, group: systemic, systemic / in life observation / body weight / body weight + systemic / in life observation / food consumption / food consumption + systemic…
rat [4] = conditions: Prenatal developmental toxicity study, other, Oral, Gavage/Intubation, dose end: 15 GD
rat [5] = conditions: Multigenerational reproductive toxicity study, other, Oral, Feed, dose end: 3 generation
[6] = systemic / in life observation / body weight / body weight
[7] = systemic / in life observation / body weight / body weight + systemic / pathology microscopic / testes / interstitial cell tumor benign + …
[8] = systemic / organ weight / liver / absolute + systemic / organ weight / liver / relative to brain weight
[9] = systemic / organ weight / liver / absolute + systemic / organ weight / liver / relative to brain weight + systemic / organ weight / liver / …
[10] = systemic / in life observation / body weight / body weight + systemic / in life observation / food consumption / food consumption
[11] = systemic / in life observation / body weight / body weight + systemic / in life observation / food consumption / food consumption + systemic…
[12] = group: developmental, developmental / developmental malformation / bone / unossified
[13] = group: maternal, reproductive / reproductive performance / aborted / aborted + systemic / in life observation / body weight / body weight gain + systemic / …
[14] = group: parental, systemic / in life observation / body weight / body weight + systemic / organ weight / brain / relative to body weight
[15] = group: parental, systemic / in life observation / body weight / body weight + systemic / pathology gross / full gross necropsy / hyperemia + systemic / …
[16] = group: reproductive, reproductive / reproductive performance / fertility / fertility + reproductive / reproductive performance / mating / mating + reproductive…
[17] = group: reproductive, reproductive / reproductive performance / mating / mating + reproductive / reproductive performance / pregnancy / pregnancy

`CCNc1nc(Cl)nc(NC(C)(C)C)n1` [Terbuthylazine] was tested, and the LOAEL (rat [1]; [6]) was 1.24 mg/kg/day, the NOAEL (rat [1]; [6]) was less than 1.24 mg/kg/day and the LEL (rat [1]; [7]) was 1.24 mg/kg/day. For the same compound, the NEL (rat [1]; [7]) was less than 1.24 mg/kg/day, the LOAEL (rat [2]; [8]) was 2.28 mg/kg/day and the NOAEL (rat [2]; [8]) was less than 2.28 mg/kg/day. The LEL (rat [2]; [9]) was 2.28 mg/kg/day, the NEL (rat [2]; [9]) was less than 2.28 mg/kg/day and the NEL (rat [3]; [10]) was 0.36 mg/kg/day. It also gave an NOAEL (rat [3]; [10]) of 0.36 mg/kg/day, an LEL (rat [3]; [11]) of 1.6 mg/kg/day and an LOAEL (rat [3]; [11]) of 1.6 mg/kg/day. For the same compound, the LEL (mouse) was 3.22 mg/kg/day, the LOAEL (mouse) was 3.22 mg/kg/day and the NEL (mouse) was less than 3.22 mg/kg/day. For the same compound, the NOAEL (mouse) was less than 3.22 mg/kg/day, the LEL (rabbit) was 1 mg/kg/day and the LOAEL (rabbit) was 1 mg/kg/day. For the same compound, the NEL (rabbit) was less than 1 mg/kg/day, the NOAEL (rabbit) was less than 1 mg/kg/day and the LEL (rat [4]; [12]) was 5 mg/kg/day. For the same compound, the LOAEL (rat [4]; [12]) was 5 mg/kg/day, the NEL (rat [4]; [12]) was 1 mg/kg/day and the NOAEL (rat [4]; [12]) was 1 mg/kg/day. The LEL (rat [4]; [13]) was 30 mg/kg/day, the LOAEL (rat [4]; [13]) was 30 mg/kg/day and the NEL (rat [4]; [13]) was 5 mg/kg/day. For the same compound, the NOAEL (rat [4]; [13]) was 5 mg/kg/day, the LEL (rat [5]; [14]) was 2.5 mg/kg/day and the NEL (rat [5]; [14]) was less than 2.5 mg/kg/day. For the same compound, the LOAEL (rat [5]; [15]) was greater than 5 mg/kg/day, the NOAEL (rat [5]; [15]) was no less than 5 mg/kg/day and the LOAEL (rat [5]; [16]) was greater than 5 mg/kg/day. For the same compound, the NOAEL (rat [5]; [16]) was no less than 5 mg/kg/day, the LEL (rat [5]; [17]) was 2.5 mg/kg/day and the NEL (rat [5]; [17]) was less than 2.5 mg/kg/day.
